IC50 and IC90 data for 37 compounds are collected here from ChEMBL document CHEMBL4483862, “Open-source discovery of chemical leads for next-generation chemoprotective antimalarials” (2018).

pIC50: −log10 of the molar value.

The test has as its system Plasmodium berghei. The test can be described thus: Luciferase/luciferin-expressing antifolate-resistant parasites were used to infect a culture of HepG2 cells that were pre-incubated with compounds. Infected hepatocytes emit light due to the luciferase reaction. Assay results are presented as the percent inhibition of light emission compared to control. […]. Format: functional. The following applies: sporozoite; for IC90: read-out: LUCIFERASE INFECTION ASSAY - IC90.

[1] abbreviates: read-out: LUCIFERASE INFECTION ASSAY - IC50.

In general, pIC50 refers to the negative decadic logarithm of the IC50, by convention in mol/L. What is called IC90 is the point of the concentration-response curve where the effect stands at 90%. For `Cc1ccccc1/N=c1\scc(-c2ccc(Cl)cc2Cl)n1C(C)CCC(C)C` (centres undefined), the IC90 turned out to be 9.57 µM. Further, where the note is “PBLUC_HILL_SLOPE 3.23, PBLUC_R_SQUARED 0.321, read-out: LUCIFERASE INFECTION ASSAY - IC50”, the pIC50 was 5.31.
In the case of `CCOC(=O)c1oc2ccccc2c1CSc1nc2ccccc2c(=O)n1Cc1ccccc1`, the concentration for an effect of 90% (IC90) came out at 4.13 µM. The pIC50 (FFLUC_HILL_SLOPE 1.98, FFLUC_R_SQUARED 0.579, HEPG2TOX_HILL_SLOPE 1.74, HEPG2TOX_R_SQUARED 0.914, PBLUC_HILL_SLOPE 15.9, PBLUC_R_SQUARED 0.125, read-out: LUCIFERASE INFECTION ASSAY - IC50) is 5.44.
`Cc1cc(C(=O)COc2ccc(CC(=O)O)cc2)c(C)n1CCC(C)C`: the IC90 came to 7.13 µM. Besides, the pIC50 (PBLUC_HILL_SLOPE 4.94, 3.04, PBLUC_R_SQUARED 0.440, 0.373, read-out: LUCIFERASE INFECTION ASSAY - IC50) was 5.27.
For the compound `CC(C)(C)NS(=O)(=O)c1cccc2c(N)cccc12`, the concentration for an effect of 90% (IC90) amounted to 5.45 µM. Also, the negative-log IC50 (pIC50) (FFLUC_HILL_SLOPE 12.8, FFLUC_R_SQUARED 0.416, HEPG2TOX_HILL_SLOPE 12.3, HEPG2TOX_R_SQUARED 0.393, PBLUC_HILL_SLOPE 11.3, PBLUC_R_SQUARED 0.345, read-out: LUCIFERASE INFECTION ASSAY - IC50) is 5.35.
Take `COc1ccccc1C(=O)Nc1ccc2c(c1)nc(CCN1CCCC1)n2C`: the IC90 was above 8.72 µM. Besides, the negative logarithm of the IC50 (pIC50) (PBLUC_HILL_SLOPE 41.2, PBLUC_R_SQUARED 0.16, read-out: LUCIFERASE INFECTION ASSAY - IC50) is 5.08.
`CC(=O)c1c(C)[nH]c(C(=O)OCC(=O)NC2CCCc3ccccc32)c1C` (centres undefined): the concentration for an effect of 90% (IC90) was above 10 µM. For the setting “HEPG2TOX_HILL_SLOPE 1.17, HEPG2TOX_R_SQUARED 0.444, read-out: LUCIFERASE INFECTION ASSAY - IC50”, the negative logarithm of the IC50 (pIC50) is below 5.00.
Turning to `Cc1nccc(-c2cccc(N/N=C(\C#N)S(=O)(=O)c3ccccn3)c2)n1`, the IC90 amounted to 8.23 µM. The pIC50 (HEPG2TOX_HILL_SLOPE 1.84, HEPG2TOX_R_SQUARED 0.959, PBLUC_HILL_SLOPE 1.78, PBLUC_R_SQUARED 0.641, read-out: LUCIFERASE INFECTION ASSAY - IC50) was 5.62.
Turning to `Cc1ccc(-n2cccc2)c(NC(=O)c2c(-c3c(Cl)cccc3Cl)noc2C)c1`, the IC90 is above 7.74 µM. For the same compound, the pIC50 (PBLUC_HILL_SLOPE 1.2, PBLUC_R_SQUARED 0.354, read-out: LUCIFERASE INFECTION ASSAY - IC50) is 5.38.
Regarding `Clc1cccc(Cl)c1/C=C/c1nc2ccccc2n1Cc1ccccc1`, the 90% effect concentration (IC90) was above 8.7 µM. Further, where the note is “HEPG2TOX_HILL_SLOPE 4.4, HEPG2TOX_R_SQUARED 0.96, PBLUC_HILL_SLOPE 4.2, PBLUC_R_SQUARED 0.29, read-out: LUCIFERASE INFECTION ASSAY - IC50”, the pIC50 was 5.25.
As to `O=C(Nc1cccc(C(F)(F)F)c1)c1cc(Cl)c(=O)n(Cc2cccc(C(F)(F)F)c2)c1`, the concentration for an effect of 90% (IC90) was above 6.95 µM. For the same compound, the negative-log IC50 (pIC50) (HEPG2TOX_HILL_SLOPE 12.5, HEPG2TOX_R_SQUARED 0.604, PBLUC_HILL_SLOPE 13, PBLUC_R_SQUARED 0.312, read-out: LUCIFERASE INFECTION ASSAY - IC50) was 5.19.
As to `CC1=C(C(=O)OCc2ccccc2)C(c2ccc(C(F)(F)F)cc2)CC(=O)N1` (centres undefined), the IC90 was above 8.48 µM. Moreover, the pIC50 under setting [1] was below 5.07.
`Cc1cccc(Nc2nc(S(=O)(=O)c3ccc(Cl)cc3)c(Cl)s2)c1`: the IC90 was above 10 µM. Further, the negative-log IC50 (pIC50) (HEPG2TOX_HILL_SLOPE 2.2, HEPG2TOX_R_SQUARED 0.986, PBLUC_HILL_SLOPE 2.95, PBLUC_R_SQUARED 0.805, read-out: LUCIFERASE INFECTION ASSAY - IC50) is 5.29.
Take `c1ccc(-c2ccc3ncc(-c4cccnc4)n3n2)cc1`: the concentration for an effect of 90% (IC90) is 3.68 µM. The negative-log IC50 (pIC50) (HEPG2TOX_HILL_SLOPE 3.18, HEPG2TOX_R_SQUARED 0.875, PBLUC_HILL_SLOPE 8.44, PBLUC_R_SQUARED 0.581, read-out: LUCIFERASE INFECTION ASSAY - IC50) is 5.55.
Consider `COC(=O)c1cc(C(=O)OCC(=O)NCCC2=CCCCC2)cc([N+](=O)[O-])c1`, for which the IC90 was above 10 µM. Besides, the pIC50 under setting [1] is below 5.00.
Regarding `CCN(Cc1ccc2c(c1)OCO2)C(=O)c1oc2c(F)cccc2c1C`, the 90% effect concentration (IC90) was above 10 µM. The negative logarithm of the IC50 (pIC50) (FFLUC_HILL_SLOPE 1.31, FFLUC_R_SQUARED 0.0559, read-out: LUCIFERASE INFECTION ASSAY - IC50) was below 5.00.
Consider `CCn1c(CNC(=O)C2CCN(c3ccc(C#N)cn3)CC2)nc2ccccc21`, for which the IC90 was above 10 µM. Further, the pIC50 (PBLUC_HILL_SLOPE 0.433, PBLUC_R_SQUARED 0.506, read-out: LUCIFERASE INFECTION ASSAY - IC50) was 5.31.
For `O=C(NNC(=S)Nc1ccc(Cl)c(Cl)c1)c1cccnc1Oc1ccccc1`, the 90% effect concentration (IC90) was above 7.62 µM. Moreover, under setting [1], the pIC50 was below 5.12.
Regarding `CC(NCC(O)COC1CCC(C(C)(C)C)CC1)c1ccccc1` (centres undefined), the IC90 was above 8.92 µM. Also, for the setting “PBLUC_HILL_SLOPE 10.1, PBLUC_R_SQUARED 0.42, read-out: LUCIFERASE INFECTION ASSAY - IC50”, the negative logarithm of the IC50 (pIC50) is 5.13.
Take `Cc1ccc(C(C)C)c(OCC(=O)Nc2ccc(I)c(C)n2)c1`: the concentration for an effect of 90% (IC90) was above 10 µM. Also, the pIC50 (FFLUC_HILL_SLOPE 2.58, FFLUC_R_SQUARED 0.455, read-out: LUCIFERASE INFECTION ASSAY - IC50) was below 5.00.
Regarding `COc1cccc(CC(=O)Nc2nc3ccc(C)cn3c2C(=O)NC2CCCC2)c1`, the 90% effect concentration (IC90) was above 8.12 µM. Moreover, under setting [1], the pIC50 was below 5.09.
Regarding `COc1cc2[nH]c(CN3CCN(c4ncccn4)CC3)nc(=O)c2cc1OC`, the IC90 was above 10 µM. For the same compound, for the setting “PBLUC_HILL_SLOPE 2.49, PBLUC_R_SQUARED 0.0972, read-out: LUCIFERASE INFECTION ASSAY - IC50”, the negative logarithm of the IC50 (pIC50) is 5.11.
Turning to `CC(C)(C)c1ccc(/C=C/C(=O)NCc2ccc(NC(=O)C3CC3)cc2)cc1`, the IC90 stood at 6.63 µM. Besides, under setting [1], the pIC50 was 5.62.
In the same order, the values of `CS(=O)(=O)c1ccc(S(=O)(=O)Nc2cccc3c2CCCC3)cc1` are above 10 µM and below 5.00.
As to `O=C(NCc1ccc(Cn2cccn2)cc1)N1CCN(c2ccc(C(F)(F)F)cc2[N+](=O)[O-])CC1`, the IC90 is above 10 µM. Besides, the pIC50 under setting [1] was below 5.00.
Take `Cc1cc(-c2cn3c(-c4ccncc4)cnc3cn2)cc(C)c1O`: the 90% effect concentration (IC90) amounted to 10 µM. In addition, the pIC50 (PBLUC_HILL_SLOPE 18.9, PBLUC_R_SQUARED 0.365, read-out: LUCIFERASE INFECTION ASSAY - IC50) is 5.05.
For `COc1ccc(O)c(C(=O)NNC(=O)C23CC4CC(CC(C4)C2)C3)c1`, the 90% effect concentration (IC90) was above 10 µM. For the same compound, the pIC50 (PBLUC_HILL_SLOPE 14.2, PBLUC_R_SQUARED 0.249, read-out: LUCIFERASE INFECTION ASSAY - IC50) was 5.06.
With `N#C/C(=C\C=C\c1ccccc1[N+](=O)[O-])C(=O)NC1CCCCC1`, the IC90 is 4.14 µM. The pIC50 (HEPG2TOX_HILL_SLOPE 4.42, HEPG2TOX_R_SQUARED 0.954, PBLUC_HILL_SLOPE 12.2, PBLUC_R_SQUARED 0.458, read-out: LUCIFERASE INFECTION ASSAY - IC50) is 5.46.
As for `Cc1ccc(C(=O)c2c3c4sc5ccccc5n4c(-c4ccc(C)cc4)nc-3[n+](-c3ccccc3)c2O)cc1`, the IC90 was above 10 µM. Further, under setting [1], the pIC50 is below 5.00.
As to `CCC(C)(C)NS(=O)(=O)c1ccc(-n2ncc(Cl)c(Cl)c2=O)cc1`, the 90% effect concentration (IC90) was determined as 1.45 µM. In addition, the negative-log IC50 (pIC50) (HEPG2TOX_HILL_SLOPE 13.4, HEPG2TOX_R_SQUARED 0.912, PBLUC_HILL_SLOPE 13.3, PBLUC_R_SQUARED 0.601, read-out: LUCIFERASE INFECTION ASSAY - IC50) was 5.91.
`COc1ccc(O)c(C(=O)c2c[nH]c(C(=O)N3CCCC3)c2)c1`: the IC90 is above 10 µM. The pIC50 (HEPG2TOX_HILL_SLOPE 3.52, HEPG2TOX_R_SQUARED 0.659, PBLUC_HILL_SLOPE 0.979, PBLUC_R_SQUARED 0.275, read-out: LUCIFERASE INFECTION ASSAY - IC50) is below 5.00.
On to `COc1ccc(-c2cnc3cnc(-c4cccc(F)c4)cn23)cc1`, for which the IC90 came to 7.12 µM. In addition, the negative logarithm of the IC50 (pIC50) (HEPG2TOX_HILL_SLOPE 2.64, HEPG2TOX_R_SQUARED 0.99, PBLUC_HILL_SLOPE 1.99, PBLUC_R_SQUARED 0.779, read-out: LUCIFERASE INFECTION ASSAY - IC50) is 5.63.
Regarding `CC(C)C(=O)NCc1coc(-c2cccs2)n1`, the concentration for an effect of 90% (IC90) was above 10 µM. The pIC50 under setting [1] was below 5.00.
In the same order, the values of `CCCn1c(SCc2ccccc2F)n[nH]c1=O` are above 10 µM and below 5.00.
`CSCC[C@H](NC(=O)CCN(c1cc(C)cc(C)c1)S(=O)(=O)c1ccc(Cl)cc1)c1nc2ccccc2[nH]1`: the 90% effect concentration (IC90) is above 10 µM. Also, the pIC50 (HEPG2TOX_HILL_SLOPE 1.18, HEPG2TOX_R_SQUARED 0.616, PBLUC_HILL_SLOPE 8.87, PBLUC_R_SQUARED 0.619, read-out: LUCIFERASE INFECTION ASSAY - IC50) was 5.08.
`O=C(NC1CCCc2ccccc21)c1cc(Cl)nc(Cl)c1` (centres undefined): the IC90 is above 10 µM. The pIC50 under setting [1] is below 5.00.
On to `COc1cc(OC)cc(-c2cnc3cnc(-c4ccc(CO)cc4)cn23)c1`, for which the IC90 is above 9.13 µM. The negative logarithm of the IC50 (pIC50) (HEPG2TOX_HILL_SLOPE 5.84, HEPG2TOX_R_SQUARED 0.257, PBLUC_HILL_SLOPE 9, PBLUC_R_SQUARED 0.405, read-out: LUCIFERASE INFECTION ASSAY - IC50) is 5.11.
As to `O=C(NCC#Cc1ccccc1)c1cccc2cccnc12`, the IC90 was above 10 µM. Further, the negative logarithm of the IC50 (pIC50) under setting [1] is below 5.00.
